# Test results reported in publication PMC5404560, “Towards Selective Mycobacterial ClpP1P2 Inhibitors with Reduced Activity against the Human Proteasome” (Antimicrobial Agents and Chemotherapy, 2017).
# Values joined by “and” are separate entries in the source; they are usually repeats but may differ in a detail not shown here. Equal values may be shown once. Read-outs that look alike come from different tables or passages of the source.
# Experiments:
# ClpP1P2 = ClpP1P2 (Mycolicibacterium smegmatis, UniProt A0R197+A0R198); assay: ClpP1P2 inhibition whole-cell RFP-SsrA reporter assay; conditions: 3 h incubation
# M. smegmatis ΔprcAB = assay type: cell-based; conditions: for M. smegmatis ΔprcAB MIC50: 24 h exposure, OD600, concentration inhibiting 50% of growth; for improvement of bacterial-growth inhibition compared to compound 1: M. smegmatis ΔprcAB
# HepG2 proteasome = HepG2 proteasome (Homo sapiens, UniProt P20618+P28074); assay: Cell-based proteasome CT-like peptidase inhibition assay (Proteasome-Glo)
# [1] = M. smegmatis ΔprcAB IC50 (μM) for ClpP1P2, whole-cell RFP-SsrA reporter
# [2] = read-out: M. smegmatis ΔprcAB IC50 (μM) for ClpP1P2, whole-cell RFP-SsrA reporter
# [3] = read-out: IC50 (μM) for HepG2 proteasome, HepG2 cells, 2 h treatment, chymotrypsin-like site
# ClpP1P2, sequence (A0R198 4-203): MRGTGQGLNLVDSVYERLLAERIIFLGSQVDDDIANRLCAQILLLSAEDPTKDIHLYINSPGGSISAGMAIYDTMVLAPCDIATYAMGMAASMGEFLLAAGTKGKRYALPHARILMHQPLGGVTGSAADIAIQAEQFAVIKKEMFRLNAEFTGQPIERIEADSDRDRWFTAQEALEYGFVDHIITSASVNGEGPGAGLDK
# ClpP1P2, sequence (A0R197 17-218): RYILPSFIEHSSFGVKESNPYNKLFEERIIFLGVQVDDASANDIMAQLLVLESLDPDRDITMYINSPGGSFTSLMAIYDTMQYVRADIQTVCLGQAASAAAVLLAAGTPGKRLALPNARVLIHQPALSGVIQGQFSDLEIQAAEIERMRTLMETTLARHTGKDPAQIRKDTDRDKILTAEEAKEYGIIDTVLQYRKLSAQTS
Molecule,IC50 (ClpP1P2; [1]),M. smegmatis ΔprcAB MIC50 (M. smegmatis ΔprcAB),IC50 (HepG2 proteasome) [µM],improvement of bacterial-growth inhibition compared to compound 1 (M. smegmatis ΔprcAB) [fold],IC50 (ClpP1P2; [2]) [µM],IC50 (HepG2 proteasome; [3]) [µM]
"O=C(N[C@@H](Cc1ccccc1)C(=O)N[C@@H](CC1CCCCC1)B(O)O)c1cnccn1 (mixture of isomers) [Compound 29, ((R)-2-cyclohexyl-1-((S)-3-phenyl-2-(pyrazine-2-carboxamido)propanamido)ethyl)boronic acid]",27 ± 16 µM,22.5 ± 2.5 µM,0.127 ± 0.002,–,–,–
"CC(C)C[C@H](NC(=O)[C@H](Cc1ccccc1)NC(=O)Cc1ccccc1)B(O)O (mixture of isomers) [Compound 34, ((R)-3-methyl-1-((S)-3-phenyl-2-(2-phenylacetamido)propanamido)butyl)boronic acid]",9 ± 3 µM,12 ± 0 µM,0.006 ± 0.001,–,–,–
"CC(C)C[C@H](NC(=O)[C@H](Cc1ccccc1)NC(=O)c1cnc(-c2ccccc2)nc1)B(O)O (mixture of isomers) [Compound 38, ((R)-3-methyl-1-((S)-3-phenyl-2-(2-phenylpyrimidine-5-carboxamido)propanamido)butyl)boronic acid]",1.7 ± 1 µM,2 ± 0 µM,0.006 ± 0.001,–,–,–
"CC(C)C[C@H](NC(=O)[C@H](Cc1ccccc1)NC(=O)c1ncc(-c2ccccc2)o1)B(O)O (mixture of isomers) [Compound 42, ((R)-3-methyl-1-((S)-3-phenyl-2-(5-phenyloxazole-2-carboxamido)propanamido)butyl)boronic acid]",6.7 ± 4.1 µM,8 ± 0 µM,0.006 ± 0.001,–,–,–
"CC(C)C[C@H](NC(=O)CCc1ccccc1)B(O)O [Compound 25, (R)-(3-methyl-1-(3-phenylpropanamido)butyl)boronic acid]",> 200 µM,>200 µM,0.25,–,–,–
"CC(C)C[C@H](NC(=O)[C@@H](N)Cc1ccccc1)B(O)O [Compound 26, ((R)-1-((S)-2-amino-3-phenylpropanamido)-3-methylbutyl)boronic acid]",> 200 µM,100 ± 0 µM,0.08 ± 0.01,–,–,–
"CCCCC[C@H](NC(=O)[C@H](Cc1ccccc1)NC(=O)c1cnccn1)B(O)O [Compound 27, ((R)-1-((S)-3-phenyl-2-(pyrazine-2-carboxamido)propanamido)hexyl)boronic acid]",4 µM,3 ± 0 µM,0.03,2,–,–
"O=C(N[C@@H](Cc1ccccc1)C(=O)N[C@H](B(O)O)C1CCCCC1)c1cnccn1 [Compound 28, ((R)-cyclohexyl((S)-3-phenyl-2-(pyrazine-2-carboxamido)propanamido)methyl)boronic acid]",33 ± 12 µM,16 ± 4 µM,0.155 ± 0.025,–,–,–
"O=C(N[C@@H](Cc1ccccc1)C(=O)N[C@@H](CCC1CCCCC1)B(O)O)c1cnccn1 [Compound 30, ((R)-3-cyclohexyl-1-((S)-3-phenyl-2-(pyrazine-2-carboxamido)propanamido)propyl)boronic acid]",25 µM,3.5 µM and 3.5 ± 0.5 µM,0.5 ± 0.01,–,–,–
"CC(=O)N[C@@H](Cc1ccccc1)C(=O)N[C@@H](CC(C)C)B(O)O [Compound 33, ((R)-1-((S)-2-acetamido-3-phenylpropanamido)-3-methylbutyl)boronic acid]",42 µM and 41.7 µM,50 ± 0 µM,0.01 ± 0.005,–,–,–
"CC(C)C[C@H](NC(=O)[C@H](Cc1ccccc1)NC(=O)c1ccccc1)B(O)O [Compound 35, ((R)-1-((S)-2-benzamido-3-phenylpropanamido)-3-methylbutyl)boronic acid]",3.3 ± 0.5 µM,3.5 ± 0.5 µM,0.006 ± 0.001,–,–,–
"CC(C)C[C@H](NC(=O)[C@H](Cc1ccccc1)NC(=O)c1cccnc1)B(O)O [Compound 36, ((R)-3-methyl-1-((S)-2-(nicotinamido)-3-phenylpropanamido)butyl)boronic acid]",4 ± 1.4 µM,6 ± 0 µM,0.03,–,–,–
"CC(C)C[C@H](NC(=O)[C@H](Cc1ccccc1)NC(=O)c1ccccn1)B(O)O [Compound 37, ((R)-3-methyl-1-((S)-3-phenyl-2-(picolinamido)propanamido)butyl)boronic acid]",17 ± 5.7 µM,15 ± 0 µM,0.006 ± 0.001,–,–,–
"CC(C)C[C@H](NC(=O)[C@H](Cc1ccccc1)NC(=O)c1cc(-c2ccccc2)ncn1)B(O)O [Compound 39, ((R)-3-methyl-1-((S)-3-phenyl-2-(6-phenylpyrimidine-4-carboxamido)propanamido)butyl) boronic acid]",> 200 µM,>200 µM,0.006 ± 0.001,–,–,–
CC(C)C[C@H](NC(=O)[C@H](Cc1ccccc1)NC(=O)c1cccc2ncsc12)B(O)O [Compound 43],2.75 ± 1.25 µM,3 ± 0 µM,0.006 ± 0.001,2,–,–
CC(C)C[C@H](NC(=O)[C@H](Cc1ccccc1)NC(=O)[C@H](Cc1ccccc1)NC(=O)c1cnccn1)B(O)O [Compound 44],> 200 µM,75 ± 0 µM,0.006 ± 0.001,–,–,–
"CC(C)C[C@H](NC(=O)[C@H](Cc1ccccc1)NC(=O)N1CCCCC1)B(O)O [Compound 45, ((R)-3-methyl-1-((S)-3-phenyl-2-(piperidine-1-carboxamido)propanamido)butyl)boronic acid]",22.5 ± 2.5 µM,19 ± 5.4 µM,0.023 ± 0.008,–,–,–
"CC(=O)N[C@@H](Cc1ccccc1)C(=O)N[C@@H](Cc1ccccc1)B(O)O [Compound 46, ((R)-1-((S)-2-acetamido-3-phenylpropanamido)-2-phenylethyl)boronic acid]",50 µM,50 ± 0 µM,0.218 ± 0.158,–,–,–
"O=C(N[C@@H](Cc1ccccc1)C(=O)N[C@@H](CCC1CCCCC1)B(O)O)c1cccc2ncsc12 [Compound 47, ((R)-1-((S)-2-(benzo[d]thiazole-7-carboxamido)-3-phenylpropanamido)-3-cyclohexylpropyl)boronic acid]",> 200 µM,>200 µM,0.288 ± 0.088,–,–,–
"O=C(N[C@@H](Cc1ccccc1)C(=O)N[C@@H](CCC1CCCCC1)B(O)O)c1ccccc1 [Compound 48, ((R)-1-((S)-2-benzamido-3-phenylpropanamido)-3-cyclohexylpropyl)boronic acid]",> 200 µM,>200 µM,> 0.5,–,–,–
"O=C(N[C@@H](Cc1ccccc1)C(=O)N[C@@H](CCC1CCCCC1)B(O)O)c1ccccc1F [Compound 49, ((R)-3-cyclohexyl-1-((S)-2-(2-fluorobenzamido)-3-phenylpropanamido)propyl)boronic acid]",> 200 µM,>200 µM,0.5,–,–,–
"CC(C)(C(=O)N[C@@H](Cc1ccccc1)C(=O)N[C@@H](CCC1CCCCC1)B(O)O)n1cccc1 [Compound 50, ((R)-3-cyclohexyl-1-((S)-2-(2-methyl-2-(1H-pyrrol-1-yl)propanamido)-3-phenylpropanamido)propyl)boronic acid]",200 µM,150 ± 0 µM,> 0.5,–,–,–
"O=C(N[C@@H](Cc1ccccc1)C(=O)N[C@@H](CCc1ccccc1)B(O)O)c1ccc(C(F)(F)F)cc1 [Compound 52, ((R)-3-phenyl-1-((S)-3-phenyl-2-(4-(trifluoromethyl)benzamido)propanamido)propyl)boronic acid]",12 µM,11 ± 1 µM,0.1,–,–,–
"O=C(N[C@@H](Cc1ccccc1)C(=O)N[C@@H](CCc1ccccc1)B(O)O)c1ccccc1F [Compound 53, ((R)-1-((S)-2-(2-fluorobenzamido)-3-phenylpropanamido)-3-phenylpropyl)boronic acid]",4.5 µM,7 ± 3 µM,0.2,–,–,–
"CC(C)(C(=O)N[C@@H](Cc1ccccc1)C(=O)N[C@@H](CCc1ccccc1)B(O)O)n1cccc1 [Compound 54, ((R)-1-((S)-2-(2-methyl-2-(1H-pyrrol-1-yl)propanamido)-3-phenylpropanamido)-3-phenylpropyl)boronic acid]",25 µM,30 ± 0 µM,0.5,–,–,–
"O=C(N[C@@H](Cc1ccccc1)C(=O)N[C@@H](CCc1ccccc1)B(O)O)c1cnc(-c2ccccc2)nc1 [Compound 55, ((R)-3-phenyl-1-((S)-3-phenyl-2-(2-phenylpyrimidine-5-carboxamido)propanamido)propyl)boronic acid]",6 µM,5.5 ± 0.5 µM,0.06,–,–,–
"CC(C)C[C@H](NC(=O)[C@H](C)NC(=O)c1cnccn1)B(O)O [Compound 56, ((R)-3-methyl-1-((S)-2-(pyrazine-2-carboxamido)propanamido)butyl)boronic acid]",100 µM,76.7 ± 20.5 µM,0.225 ± 0.025,–,–,–
((R)-1-((S)-2-(indolizine-2-carboxamido)-3-phenylpropanamido)-3-methylbutyl)boronic acid [Compound 40],–,8.3 ± 4.5 µM,–,–,9 ± 3,0.023 ± 0.008
((R)-1-((S)-2-(indolizine-3-carboxamido)-3-phenylpropanamido)-3-methylbutyl)boronic acid [Compound 41],–,15 ± 0 µM,–,–,11.3 ± 0.9,0.006 ± 0.001
